The IC50 is the midpoint of a concentration-inhibition curve.

Test [1] relates to HBsAg secretion. Kind of test: Inhibition of HBsAg secretion (ELISA). The following applies: Hepatitis B virus, HepG2.2.15, 240 h, read-out: HbsAg IC50 (nM). In kind it is cell-based, HBV. As to the method: (§1) The chromosomes of HepG2.2.15 cells (SELLS, PNAS, 1987 and SELLS, JV, 1988) integrate the complete HBV genome and stably express viral RNA and viral proteins. HepG2.2.15 cells are able to secrete mature HBV particles and HBsAg into the culture medium. Viral particle DNA and HBsAg secreted by HepG 2.2.15 cells can be quantified by qPCR and ELISA methods, and the effects of the compound on virus replication and HBsAg secretion are thus examined.
HepG 2.2.15 Cells (8,000 per well) were seeded into 96-well cell culture plates in duplicate and cultured for 3 days until the cells grew to fill in pores. Cells were treated with 4-fold serial diluted compound solution for 10 days, and the compound solution was exchanged once every other day, the final concentration of DMSO in all wells was 0.5% and DMSO was used as a drug-free control. On the eleventh day, the supernatant was collected for quantitative detection of HBsAg.
The level of HBsAg secreted by the cells after treatment with the compound was detected by ELISA. The method used a hepatitis B surface antigen diagnostic kit (Shanghai K ehua Biotechnology Co., Ltd. 510910113). 25 ≈L of the supernatant to be examined (diluted to 75 ≈L in PBS) was added to each well of the ELISA plate, and a kit-positive control and a negative control were set. The ELISA plates were blocked with mounting paper and incubated at 37 eC for 60 minutes. The ELISA plate was took out, and the mounting paper was removed, then 50 ≈L of enzyme conjugate was added into each well. After shaking for 10 seconds, the ELISA plates were blocked with mounting paper and incubated at 37 eC for 30 minutes. The ELISA plate was took out, and the mounting paper was removed, and the ELISA plate was repeated washing five times: liquid in the wells was discard each time; the wells was filled with washing solution, then stood for 60 seconds and spined dry; and liquid residue on blotting paper was patted dry. After the washing was completed, to all wells was immediately added a mixture of freshly prepared developer A and developer B: 100 ≈L per well. After shaking for 10 seconds on oscillator, the ELISA plates were blocked with mounting paper and incubated at 37 eC for 30 minutes. To all wells were added 50 ≈L of stop solution. Data were read at a wavelength of 450 nm on an Envision plate reader. Concentration-HBsAg OD450 value was treated with Graphpad Prism 5 software and the IC50 of inhibition of HBsAg secretion by compounds was calculated by a four-parameter nonlinear regression model.
In general terms: An ELISA detects its analyte on a solid surface through an enzyme-linked reagent.

The subject of test [2] is HBV DNA replication. Kind of test: Inhibition of HBV virus replication (HBV DNA in supernatant, qPCR). In kind it is cell-based. The following applies: Hepatitis B virus, 240 h; HepG2.2.15 cells, 10 days treatment, supernatant HBV DNA by qPCR. On the procedure:
as §1
HepG 2.2.15 Cells (8,000 per well) were seeded into 96-well cell culture plates in duplicate and cultured for 3 days until the cells grew to fill in pores. Cells were treated with 4-fold serial diluted compound solution for 10 days, and the compound solution was exchanged once every other day, the final concentration of DMSO in all wells was 0.5% and DMSO was used as a drug-free control. On the eleventh day, the supernatant was collected for quantitative detection of HBV DNA.
qPCR method was used for detection of viral genomic DNA, HBV primers were as follows: HBV-For-202, […]; HBV-Rev-315, […].
Using the SY BR Premix Ex Taq II—Takara DRR081S kit, 1 ≈L of the cell culture supernatant was used as a template, a plasmid containing the HBV genome was used for plotting a standard curve, and virus copy number was calculated using the standard curve. Concentration-virus copy number was treated with Graphpad Prism 5 software and the IC50 of inhibition of virus replication by compounds was calculated by a four-parameter nonlinear regression model.
For orientation: Real-time PCR tracks product formation cycle by cycle.

For the compound `CNC(=O)c1cc2c(cc1OCCCOC)CC(C(C)C)n1cc(C(=O)O)c(=O)cc1-2` (stereo not shown) [Example 5, 6-isopropyl-9-(3-methoxypropoxy)-10-(methylcarbamoyl)-2-oxo-6,7-dihydro-2H-pyrido[2,1-a]isoquinoline-3-carboxylic Acid], the half-inhibitory concentration (IC50) in test [1] worked out at 9.88 nM; in test [2], 10.6 nM.

As for `COCCCOc1cc2c(cc1C(C)=O)-c1cc(=O)c(C(=O)O)cn1C(C(C)C)C2` (stereo not shown) [Example 6, 10-acetyl-6-isopropyl-9-(3-methoxypropoxy)-2-oxo-6,7-dihydro-2H-pyrido[2,1-a]isoquinoline-3-carboxylic Acid], the 50% inhibitory concentration (IC50) turned out to be 3.63 nM in test [1] and 3.02 nM in test [2].

Take `CC(C)C1Cc2cc(N3CCCC3)c(-c3nccs3)cc2-c2cc(=O)c(C(=O)O)cn21` (stereo not shown) [Example 69, 6-isopropyl-2-oxo-9-(pyrrolidin-1-yl)-10-(thiazol-2-yl)-6,7-dihydro-2H-pyrido[2,1-a]isoquinoline-3-carboxylic Acid]: the half-maximal inhibitory concentration (IC50) in test [1] was found to be 15.2 nM; in test [2], 10.2 nM.

With `COCCCOc1cc2c(cc1-c1csc(N)n1)-c1cc(=O)c(C(=O)O)cn1C(C(C)C)C2` (stereo not shown) [Example 8, 10-(2-aminothiazol-4-yl)-6-isopropyl-9-(3-methoxypropoxy)-2-oxo-6,7-dihydro-2H-pyrido[2,1-a]isoquinoline-3-carboxylic Acid], the IC50 in test [1] turned out to be 6.28 nM; in test [2] it was 4.46 nM.

In the case of `COCCCOc1cc2c(cc1-c1cncs1)-c1cc(=O)c(C(=O)O)cn1C(C(C)C)C2` (stereo not shown) [Example 33, 6-isopropyl-9-(3-methoxypropoxy)-2-oxo-10-(thiazol-5-yl)-6,7-dihydro-2H-pyrido[2,1-a]isoquinoline-3-carboxylic Acid], the IC50 in test [1] is 3.08 nM; in test [2], 1.93 nM.

Take `COCCCOc1cc2c(cc1-c1nccs1)-c1cc(=O)c(C(=O)O)cn1C(C(C)C)C2` (stereo not shown) [Example 9, 6-isopropyl-9-(3-methoxypropoxy)-2-oxo-10-(thiazol-2-yl)-6,7-dihydro-2H-pyrido[2,1-a]isoquinoline-3-carboxylic Acid]: the IC50 in test [1] came out at 0.25 nM; in test [2], 0.18 nM.

In the case of `COCCCOc1cc2c(cc1-c1ncc(Br)s1)-c1cc(=O)c(C(=O)O)cn1C(C(C)C)C2` (stereo not shown) [Example 24, 10-(5-bromothiazol-2-yl)-6-isopropyl-9-(3-methoxypropoxy)-2-oxo-6,7-dihydro-2H-pyrido[2,1-a]isoquinoline-3-carboxylic Acid], the IC50 in test [1] worked out at 9.99 nM; in test [2], 8.63 nM.

Consider `COCCCOc1cc2c(cc1C(=O)OCC(F)F)-c1cc(=O)c(C(=O)O)cn1C(C(C)C)C2` (stereo not shown) [Example 35, 10-((2,2-difluoroethoxy)carbonyl)-6-isopropyl-9-(3-methoxypropoxy)-2-oxo-6,7-dihydro-2H-pyrido[2,1-a]isoquinoline-3-carboxylic Acid], for which the half-maximal inhibitory concentration (IC50) was determined as 9.25 nM in test [1] and 7.59 nM in test [2].

As for `COc1cc2c(cc1-c1ccco1)CC(C(C)C)n1cc(C(=O)O)c(=O)cc1-2` (stereo not shown) [Example 16, 9-(furan-2-yl)-6-isopropyl-10-methoxy-2-oxo-6,7-dihydro-2H-pyrido[2,1-a]isoquinoline-3-carboxylic Acid], the IC50 in test [1] was determined as 3.2 nM; in test [2] it was 1.99 nM.

Turning to `COc1cc2c(cc1-c1ncc(Br)s1)CC(C(C)C)n1cc(C(=O)O)c(=O)cc1-2` (stereo not shown) [Example 80, 9-(5-bromothiazol-2-yl)-6-isopropyl-10-methoxy-2-oxo-6,7-dihydro-2H-pyrido[2,1-a]isoquioline-3-carboxlic Acid], the values for the IC50 in test [1] and in test [2] were 2.16 nM and 2.57 nM, respectively.

Take `COc1cc2c(cc1-c1ccc(Cl)s1)CC(C(C)C)n1cc(C(=O)O)c(=O)cc1-2` (stereo not shown) [Example 79, 9-(5-chlorothiophen-2-yl)-6-isopropyl-10-methoxy-2-oxo-6,7-dihydro-2H-pyrido[2,1-a]isoquinoline-3-carboxylic Acid]: the IC50 in test [1] is 2.95 nM; in test [2], 2.01 nM.

Regarding `COCc1csc(-c2cc3c(cc2OC)-c2cc(=O)c(C(=O)O)cn2C(C(C)C)C3)n1` (stereo not shown) [Example 78, 6-isopropyl-10-methoxy-9-(4-(methoxymethyl)thiazol-2-yl)-2-oxo-6,7-dihydro-2H-pyrido[2,1-a]isoquinoline-3-carboxylic Acid], the values for the IC50 in test [1] and in test [2] were 3.26 nM and 2.84 nM, respectively.

`C#CCOC(=O)c1cc2c(cc1OCCCOC)CC(C(C)C)n1cc(C(=O)O)c(=O)cc1-2` (stereo not shown) [Example 36, 6-isopropyl-9-(3-methoxypropoxy)-2-oxo-10-((prop-2-yn-1-yloxy)carbonyl)-6,7-dihydro-2H-pyrido[2,1-a]isoquinoline-3-carboxylic Acid]: the IC50 is 4.22 nM in test [1] and 2.55 nM in test [2].

On to `COCCCOc1cc2c(cc1-c1ccco1)-c1cc(=O)c(C(=O)O)cn1C(C(C)C)C2` (stereo not shown) [Example 11, 10-(furan-2-yl)-6-isopropyl-9-(3-methoxypropoxy)-2-oxo-6,7-dihydro-2H-pyrido[2,1-a]isoquinoline-3-carboxylic Acid], for which the IC50 in test [1] stood at 1.6 nM; in test [2] it was 1.9 nM.

For the origin of these results see patent publication US10966970B2, “Fused tricyclic compounds and uses thereof in medicine” (SUNSHINE LAKE PHARMA CO., LTD., priority 2017, dated 2021).
